Reference: ChEMBL document CHEMBL5724914, “Linking interpersonal differences in gut microbiota composition and drug biotransformation activity” (2024)

Assay: (§1) The drug is tested on Z-010 corresponding to metagenome with ENA study accession number: PRJEB37062 and ENA sample accession number: ERS12561810 for biotransformation under anaerobic condition. The drug concentrations were measured over 9 timepoints collected between 0 and 24 hours of incubation by liquid-chromatography-coupled mass spectrometry (LC–MS)
Conditions: 2 µM
Also: call rule not given here.

Row | Bacterial Biotransformation | Compound
1 | Compound metabolized | CSc1ccc2c(c1)C(N1CCN(C)CC1)Cc1ccccc1S2.O=C(O)/C=C\C(=O)O (configuration not stated)
2 | Compound NOT metabolized | CN1CCC[C@@H]1CCO[C@](C)(c1ccccc1)c1ccc(Cl)cc1.O=C(O)/C=C/C(=O)O [CLEMASTINE FUMARATE]

Assay: (§2) The drug is tested on Z-018 corresponding to pig gut metagenome with ENA study accession number: PRJEB37062 and ENA sample accession number: ERS12561817 for biotransformation under anaerobic condition. The drug concentrations were measured over 9 timepoints collected between 0 and 24 hours of incubation by liquid-chromatography-coupled mass spectrometry (LC–MS)
Conditions: 2 µM

Row | Bacterial Biotransformation | Compound
3 | Compound NOT metabolized | CN1CCC[C@@H]1CCO[C@](C)(c1ccccc1)c1ccc(Cl)cc1.O=C(O)/C=C/C(=O)O [CLEMASTINE FUMARATE]

Assay: as §2, with “WLS-027” for “Z-018”, “human” for “pig”, “ERS12561744” for “ERS12561817”
Conditions: 2 µM

Row | Bacterial Biotransformation | Compound
4 | Compound NOT metabolized | CSc1ccc2c(c1)C(N1CCN(C)CC1)Cc1ccccc1S2.O=C(O)/C=C\C(=O)O (configuration not stated)
5 | Compound metabolized | CN1CCC[C@@H]1CCO[C@](C)(c1ccccc1)c1ccc(Cl)cc1.O=C(O)/C=C/C(=O)O [CLEMASTINE FUMARATE]

Assay: as §2, with “WLS-090” for “Z-018”, “human” for “pig”, “ERS12561753” for “ERS12561817”
Conditions: 2 µM

Row | Bacterial Biotransformation | Compound
6 | Compound metabolized | CSc1ccc2c(c1)C(N1CCN(C)CC1)Cc1ccccc1S2.O=C(O)/C=C\C(=O)O (configuration not stated)
7 | Compound NOT metabolized | CN1CCC[C@@H]1CCO[C@](C)(c1ccccc1)c1ccc(Cl)cc1.O=C(O)/C=C/C(=O)O [CLEMASTINE FUMARATE]

Assay: as §1, with “Z-021” for “Z-010”, “ERS12561820” for “ERS12561810”
Conditions: 2 µM

Row | Bacterial Biotransformation | Compound
8 | Compound metabolized | CSc1ccc2c(c1)C(N1CCN(C)CC1)Cc1ccccc1S2.O=C(O)/C=C\C(=O)O (configuration not stated)
9 | Compound NOT metabolized | CN1CCC[C@@H]1CCO[C@](C)(c1ccccc1)c1ccc(Cl)cc1.O=C(O)/C=C/C(=O)O [CLEMASTINE FUMARATE]

Conditions: human gut metagenome, 24 h, 2 µM

Row | Bacterial Biotransformation | Compound
10 | Compound NOT metabolized | CSc1ccc2c(c1)C(N1CCN(C)CC1)Cc1ccccc1S2.O=C(O)/C=C\C(=O)O (configuration not stated)
11 | Compound NOT metabolized | CN1CCC[C@@H]1CCO[C@](C)(c1ccccc1)c1ccc(Cl)cc1.O=C(O)/C=C/C(=O)O [CLEMASTINE FUMARATE]

Assay: as §2, with “WLS-082” for “Z-018”, “human” for “pig”, “ERS12561751” for “ERS12561817”
Conditions: 2 µM

Row | Bacterial Biotransformation | Compound
12 | Compound NOT metabolized | CN1CCC[C@@H]1CCO[C@](C)(c1ccccc1)c1ccc(Cl)cc1.O=C(O)/C=C/C(=O)O [CLEMASTINE FUMARATE]

Assay: as §2, with “WLS-086” for “Z-018”, “human” for “pig”, “ERS12561752” for “ERS12561817”
Conditions: 2 µM

Row | Bacterial Biotransformation | Compound
13 | Compound metabolized | CSc1ccc2c(c1)C(N1CCN(C)CC1)Cc1ccccc1S2.O=C(O)/C=C\C(=O)O (configuration not stated)
14 | Compound metabolized | CN1CCC[C@@H]1CCO[C@](C)(c1ccccc1)c1ccc(Cl)cc1.O=C(O)/C=C/C(=O)O [CLEMASTINE FUMARATE]

Conditions: human gut metagenome, 24 h, 2 µM
Remark: another data set of the same source

Row | Bacterial Biotransformation | Compound
15 | Compound NOT metabolized | CSc1ccc2c(c1)C(N1CCN(C)CC1)Cc1ccccc1S2.O=C(O)/C=C\C(=O)O (configuration not stated)
16 | Compound NOT metabolized | CN1CCC[C@@H]1CCO[C@](C)(c1ccccc1)c1ccc(Cl)cc1.O=C(O)/C=C/C(=O)O [CLEMASTINE FUMARATE]

Assay: as §2, with “WLS-039” for “Z-018”, “human” for “pig”, “ERS12561746” for “ERS12561817”
Conditions: 2 µM

Row | Bacterial Biotransformation | Compound
17 | Compound metabolized | CSc1ccc2c(c1)C(N1CCN(C)CC1)Cc1ccccc1S2.O=C(O)/C=C\C(=O)O (configuration not stated)
18 | Compound metabolized | CN1CCC[C@@H]1CCO[C@](C)(c1ccccc1)c1ccc(Cl)cc1.O=C(O)/C=C/C(=O)O [CLEMASTINE FUMARATE]

Assay: as §2, with “Z-014” for “Z-018”, “rat” for “pig”, “ERS12561814” for “ERS12561817”
Conditions: 2 µM

Row | Bacterial Biotransformation | Compound
19 | Compound NOT metabolized | CSc1ccc2c(c1)C(N1CCN(C)CC1)Cc1ccccc1S2.O=C(O)/C=C\C(=O)O (configuration not stated)
20 | Compound NOT metabolized | CN1CCC[C@@H]1CCO[C@](C)(c1ccccc1)c1ccc(Cl)cc1.O=C(O)/C=C/C(=O)O [CLEMASTINE FUMARATE]

Conditions: human gut metagenome, 24 h, 2 µM
Remark: another data set of the same source

Row | Bacterial Biotransformation | Compound
21 | Compound NOT metabolized | CSc1ccc2c(c1)C(N1CCN(C)CC1)Cc1ccccc1S2.O=C(O)/C=C\C(=O)O (configuration not stated)
22 | Compound metabolized | CN1CCC[C@@H]1CCO[C@](C)(c1ccccc1)c1ccc(Cl)cc1.O=C(O)/C=C/C(=O)O [CLEMASTINE FUMARATE]

Assay: as §2, with “WLS-170” for “Z-018”, “human” for “pig”, “ERS12561762” for “ERS12561817”
Conditions: 2 µM

Row | Bacterial Biotransformation | Compound
23 | Compound metabolized | CSc1ccc2c(c1)C(N1CCN(C)CC1)Cc1ccccc1S2.O=C(O)/C=C\C(=O)O (configuration not stated)
24 | Compound metabolized | CN1CCC[C@@H]1CCO[C@](C)(c1ccccc1)c1ccc(Cl)cc1.O=C(O)/C=C/C(=O)O [CLEMASTINE FUMARATE]

Conditions: human gut metagenome, 24 h, 2 µM
Remark: another data set of the same source

Row | Bacterial Biotransformation | Compound
25 | Compound metabolized | CSc1ccc2c(c1)C(N1CCN(C)CC1)Cc1ccccc1S2.O=C(O)/C=C\C(=O)O (configuration not stated)

Assay: as §2, with “Z-001” for “Z-018”, “mouse” for “pig”, “ERS12561801” for “ERS12561817”
Conditions: 2 µM

Row | Bacterial Biotransformation | Compound
26 | Compound metabolized | CSc1ccc2c(c1)C(N1CCN(C)CC1)Cc1ccccc1S2.O=C(O)/C=C\C(=O)O (configuration not stated)
27 | Compound NOT metabolized | CN1CCC[C@@H]1CCO[C@](C)(c1ccccc1)c1ccc(Cl)cc1.O=C(O)/C=C/C(=O)O [CLEMASTINE FUMARATE]

Conditions: human gut metagenome, 24 h, 2 µM
Remark: another data set of the same source

Row | Bacterial Biotransformation | Compound
28 | Compound NOT metabolized | CSc1ccc2c(c1)C(N1CCN(C)CC1)Cc1ccccc1S2.O=C(O)/C=C\C(=O)O (configuration not stated)
29 | Compound metabolized | CN1CCC[C@@H]1CCO[C@](C)(c1ccccc1)c1ccc(Cl)cc1.O=C(O)/C=C/C(=O)O [CLEMASTINE FUMARATE]

Conditions: human gut metagenome, 24 h, 2 µM
Remark: another data set of the same source

Row | Bacterial Biotransformation | Compound
30 | Compound NOT metabolized | CN1CCC[C@@H]1CCO[C@](C)(c1ccccc1)c1ccc(Cl)cc1.O=C(O)/C=C/C(=O)O [CLEMASTINE FUMARATE]

Assay: as §1, with “Z-005” for “Z-010”, “ERS12561805” for “ERS12561810”
Conditions: 2 µM

Row | Bacterial Biotransformation | Compound
31 | Compound metabolized | CSc1ccc2c(c1)C(N1CCN(C)CC1)Cc1ccccc1S2.O=C(O)/C=C\C(=O)O (configuration not stated)
32 | Compound NOT metabolized | CN1CCC[C@@H]1CCO[C@](C)(c1ccccc1)c1ccc(Cl)cc1.O=C(O)/C=C/C(=O)O [CLEMASTINE FUMARATE]
